Earlier results as cited in patent US12297406B2, “Method for preparing a composition comprising cetylated fatty acids” (ALESCO S.R.L., priority 2019, dated 2025).

Settings: European Union food additive E319

Compound: CC(C)(C)c1cc(O)ccc1O [TBHQ, Tert-butyl-hydroquinone]
- acceptable daily intake (ADI): 0.7 mg/kg of body weight
